Tests used:
Assay type in all cases: in vivo
[1] = system: transgenic soybean plants expressing CYP34; experiment: Icafolin herbicide injury rating, greenhouse spray, CYP34 soybean; conditions: Table 10
Description: The codon-optimized gene was placed into plant transformation cassette with the CYP34 coding sequence operably linked to a constitutive expression element comprising the promoter, leader, and intron of Arabidopsis thaliana Ubiquitin 3 (SEQ ID NO:14) and a Medicago truncatula photosystem II terminator (SEQ ID NO:15). A plant transformation vector was created, comprising the CYP34 gene cassette and an aadA selectable marker expression cassette, which confers resistance to the antibiotics spectinomycin and streptomycin. Soybean cultivar AG3555 seed-derived embryo explants were transformed with the vector described above by Agrobacterium-mediated transformation using known methods in the art, and positive-transformed plantlets were selected based on growth in the presence of spectinomycin. Plantlets comprising single copy events were grown in the greenhouse to produce R1 seeds. R1 plants were subsequently selected for the homozygous CYP positive plants, either by molecular analysis of young leaf tissue or by seed chipping prior to planting. These selected plants were then screened for tolerance to the icafolin herbicide.
Herbicide tolerance screening was performed by selecting R1 plants at roughly the V2-V3 developmental stage and applying the icafolin herbicide in a track sprayer under standard greenhouse conditions. Two independent transgenic events per transgene were selected for screening. The herbicide was formulated with 1% v/v methylated seed oil (MSO) and 2.5% v/v ammonium sulfate (AMS) and sprayed with a XR nozzle at 15 gallons per […] (GPA) to mimic field conditions. The icafolin formulation was sprayed at two rates: 5 g active ingredient (ai)/hectare (ha) and 25 g ai/ha. The treated soybean plants were returned to the greenhouse following spray application and allowed to grow under standard conditions. The plants were rated for herbicide injury at approximately 13 and 21 days after treatment (DAT). Untreated transgenic plants and control (wild-type) plants were used for phenotypic comparison. The herbicide injury rating accounts for plant malformation, stunting, chlorosis, necrosis, and plant death relative to the untreated control plants. An injury rating of approximately 90% or above indicates nearly complete plant death. An injury rating of less than 30% indicates partial tolerance and an injury rating of less than 20% indicates good tolerance. Injury ratings were collected and analyzed, and photographs of representative plants were taken.

[2] = system: Soy transgenic plants expressing CYP15; experiment: Field trial icafolin injury rating, CYP15 soybean; conditions: for Percent Plant Injury (21 DAT): averaged across repetitions, field locations and events
Protocol: (§1) Soy transgenic plants expressing CYP14 or CYP15 were assayed in small scale field trails across nine sites in the United States for tolerance to icafolin spray applications. The plants were grown in field plots and sprayed during the early vegetative stages when plants were roughly at the V3 stage. The icafolin formulation was sprayed at either a 5 g ai/ha or 25 g ai/ha application rate with 2 treatment replications per location. The plants were rated for herbicide injury at 7, 14, 21, and 28 days after treatment (DAT). A total of 12 events for CYP14 and 11 events for CYP15 were tested. An event transformed with a non-herbicide tolerance construct served as a negative control to provide a comparison for injury.

[3] = system: transgenic soybean plants expressing CYP15; experiment: Icafolin herbicide injury rating, greenhouse spray, CYP15 soybean
Description: The codon-optimized polynucleotide sequences were placed into plant transformation cassettes with each CYP coding sequence operably-linked to a constitutive expression element comprising the promoter, leader, and intron sequence of Arabidopsis thaliana Ubiquitin 3 (SEQ ID NO:14) and a Medicago truncatula photosystem II terminator (SEQ ID NO:15). Four plant transformation vectors were created, each comprising one of the CYP gene expression cassettes and an aadA selectable marker expression cassette, conferring resistance to the antibiotics spectinomycin and streptomycin. Soybean cultivar AG3555 seed-derived embryo explants were transformed with the vectors by Agrobacterium-mediated transformation using known methods in the art, and transformed plantlets were selected based on growth in the presence of spectinomycin. Plantlets comprising single copy events were grown in the greenhouse to produce R1 seeds. R1 plants were subsequently selected for homozygous CYP-positive plants, either by molecular analysis of young leaf tissue or by seed chipping prior to planting. These selected plants were then screened for tolerance to icafolin herbicide.
Herbicide tolerance screens were performed by selecting R1 plants at roughly the V2-V3 developmental stage and applying icafolin herbicide with a track sprayer under standard greenhouse conditions. Two independent transgenic events per transgene were screened. The herbicide was formulated with 1% v/v methylated seed oil (MSO) and 2.5% v/v ammonium sulfate (AMS) and sprayed with a XR nozzle at 15 gallons per […] (GPA) to mimic field conditions. The icafolin used in this Example and in the experiments described in Examples 2-4 was a mixture of the methyl ester forms of the 2R, 4R and 2S, 4S isomers. The icafolin formulation was sprayed at two rates: 5 g active ingredient (ai)/hectare (ha) and 25 g ai/ha. The herbicide treated soybean plants were returned to the greenhouse following spray application and allowed to grow under standard conditions. Plants were rated for herbicide injury at approximately 14 and 21 days after treatment (DAT). Untreated transgenic plants and control (wild-type) plants were used for phenotypic comparison. The herbicide injury rating accounts for plant malformation, stunting, chlorosis, necrosis, and plant death relative to the untreated control plants. An injury rating of approximately 90% or above indicates nearly complete plant death. An injury rating of less than 30% indicates partial tolerance, and an injury rating of less than 20% indicates good tolerance. Injury ratings were collected and analyzed, and photographs of representative plants were taken.

[4] = system: Soy transgenic plants expressing CYP14; experiment: Field trial icafolin injury rating, CYP14 soybean; conditions: for Percent Plant Injury (21 DAT): averaged across repetitions, field locations and events
Protocol: as §1

[5] = CYP34 Event 326, 5 g ai/ha icafolin
[6] = CYP34 Event 326, 25 g ai/ha icafolin
[7] = CYP34 Event 356, 5 g ai/ha icafolin
[8] = CYP34 Event 356, 25 g ai/ha icafolin
[9] = CYP15 Event 618, 5 g ai/ha icafolin, Experiment 2
[10] = CYP15 Event 618, 25 g ai/ha icafolin, Experiment 2
[11] = CYP15 Event 670, 5 g ai/ha icafolin, Experiment 2
[12] = CYP15 Event 670, 25 g ai/ha icafolin, Experiment 2
[13] = CYP15 Event 784, 5 g ai/ha icafolin, Experiment 2
[14] = CYP15 Event 784, 5 g ai/ha icafolin, Experiment 1
[15] = CYP15 Event 784, 25 g ai/ha icafolin, Experiment 2
[16] = CYP15 Event 784, 25 g ai/ha icafolin, Experiment 1
[17] = CYP15 Event 794, 5 g ai/ha icafolin, Experiment 2
[18] = CYP15 Event 794, 5 g ai/ha icafolin, Experiment 1
[19] = CYP15 Event 794, 25 g ai/ha icafolin, Experiment 2
[20] = CYP15 Event 794, 25 g ai/ha icafolin, Experiment 1

## C=C[C@]1(C(=O)N[C@H]2CO[C@@H](C(=O)OC)C2)CC(c2cc(F)cc(F)c2)=NO1 (relative stereo) [icafolin, methyl(2R*,4R*)-4-[[(5S)-3-(3,5-difluorophenyl)-5-vinyl-4H-isoxazole-5-carbonyl]amino]tetrahydrofuran-2-carboxylate]
[1]; [5]
  Percent Injury 13 DAT: 12.5%
  Percent injury 21 DAT: 9.2%
[1]; [6]
  Percent Injury 13 DAT: 48.3%
  Percent injury 21 DAT: 36.7%
[1]; [7]
  Percent Injury 13 DAT: 13.3%
  Percent injury 21 DAT: 12.5%
[1]; [8]
  Percent Injury 13 DAT: 35.8%
  Percent injury 21 DAT: 30.8%
[2]; 5 g ai/ha icafolin
  Percent Plant Injury (21 DAT): 8.7%
[2]; 5 g ai/ha, 21 DAT
  injury ratings: below 15%
[2]; 25 g ai/ha
  Tolerance to icafolin: Incomplete tolerance
[2]; 25 g ai/ha icafolin
  Percent Plant Injury (21 DAT): 31.9%
[3]; [9]
  Percent Injury 14 DAT: 23%
  Percent injury 21 DAT: 12%
[3]; [10]
  Percent Injury 14 DAT: 60%
  Percent injury 21 DAT: 32%
[3]; [11]
  Percent Injury 14 DAT: 10%
  Percent injury 21 DAT: 15%
[3]; [12]
  Percent Injury 14 DAT: 52%
  Percent injury 21 DAT: 34%
[3]; [13]
  Percent Injury 14 DAT: 8%
  Percent injury 21 DAT: 11%
[3]; [14]
  Percent Injury 15 DAT: 8%
  Percent injury 21 DAT: 3%
[3]; [15]
  Percent Injury 14 DAT: 78%
  Percent injury 21 DAT: 44%
[3]; [16]
  Percent Injury 15 DAT: 28%
  Percent injury 21 DAT: 32%
[3]; [17]
  Percent Injury 14 DAT: 12%
  Percent injury 21 DAT: 9%
[3]; [18]
  Percent Injury 15 DAT: 8%
  Percent injury 21 DAT: 6%
[3]; [19]
  Percent Injury 14 DAT: 78%
  Percent injury 21 DAT: 49%
[3]; [20]
  Percent Injury 15 DAT: 36%
  Percent injury 21 DAT: 41%
[3]; in vivo
  Tolerance to icafolin: unexpected tolerance
  injury: less than 30%
[4]; 5 g ai/ha icafolin
  Percent Plant Injury (21 DAT): 11.4%
[4]; 5 g ai/ha, 21 DAT
  injury ratings: below 15%
[4]; 25 g ai/ha
  Tolerance to icafolin: Incomplete tolerance
[4]; 25 g ai/ha icafolin
  Percent Plant Injury (21 DAT): 41.1%

Reference: patent US20240415123A1, “METHODS AND COMPOSITIONS FOR ICAFOLIN HERBICIDE TOLERANCE” (Monsanto Technology LLC, priority 2023, published 2024)
